Results: patent US12496310B2, “Compositions and methods for adoptive cell therapy” (MEMORIAL SLOAN KETTERING CANCER CENTER, priority 2017, dated 2025)

Experiments:
[1] = test system: HEK293T cells expressing CPG2; assay: Prodrug treatment of HEK293T cells expressing CPG2 variants; format: cell-based, human
Method: Expression of CPG2 without a signal peptide (CPG2nosigp) was employed as a control. HEK293t cells stably transfected with CPG2 variants were exposed to P-AMS (1 μM) for 48 hours and analyzed by bright field microscopy (FIG. 9A). Cells were exposed to varying concentrations of P-AMS and cell viability was analyzed at 48 hr post treatment (FIG. 9B).

Jurkat T cells = details: increasing prodrug with CPG2 supernatant, 48 hours
Human Jurkat T cells = assay: Prodrug activation by purified recombinant CPG2, Jurkat viability; format: cell-based; details: Jurkat viability at 48 hours
Method: FIG. 4 provides exemplary data showing activation of P-AMS (see FIG. 2) by recombinant CPG2 expressed and purified from E. coli. (A) Human Jurkat T cells were incubated with or without P-AMS in the presence of increasing concentration of purified CPG2. […] (B) Recombinant CPG2 was exposed to various concentrations of glutamated AMS prodrug. Following incubation at 37° C. (0.5, 1, 2, and 4 hr.), the reaction was combined with Amplex® Red (converts free glutamate to a fluorescent species) and fluorescent emission was analyzed using a fluorescence multiwell plate scanner.
The CPG2-pET151 vector was transformed into BL21 star E. coli cells and induced with IPTG. Bacteria were homogenized in a French Press and purified by affinity chromatography over Ni++ beads using standard protocols. Imidazole was exchanged via PBS dialysis and protein was purified via desalting spin columns. The expressed and purified CPG2 was assayed to confirm that the active enzyme was a potent converter of glutamated prodrugs. […] Pro-AMS was activated by recombinant CPG2 in vitro. Human Jurkat T cells were incubated with or without P-AMS in the presence of increasing concentration of purified CPG2. […] (FIG. 4B) Similar enzyme kinetics will be used to assess the characteristics of the enzyme activity for each of the prodrugs similarly. […]

SET2 cells = assay: SET2 viability with prodrug plus recombinant enzyme or enzyme-containing supernatant; format: cell-based; details: SET2, with Beta-lactamase supernatant
Method: Recombinant CPG2 protein was initially synthesized, purified (FIGS. 15A and 15B), and incubated with increasing concentrations of prodrug in a glutamate release assay (FIG. 14C). Mass spectrometry was used to determine that the glutamate moiety was released from all of the glutamate prodrugs.
Cell viability was measured by CellTitre-Glo® luminescence assay.
To determine to respective enzyme output of the Beta-lactamase constructs relative to the previous CPG2 constructs, a quantitative sandwich ELISA was used to determine the concentration (ng/mL) of purified recombinant CPG2, and a quantitative nitrocefin assay was used to determine the concentration (ng/mL) of purified recombinant Beta-lactamase (FIG. 22A). Cell viability was measured by CellTitre-Glo® luminescence in the presence of prodrug (glut-AMS or ceph-AMS) and varying concentrations of purified recombinant CPG2 or Beta-lactamase (FIG. 22B).

| SMILES | activation of prodrug ([1]; HEK293T cells expressing CPG intracellularly) | cell death ([1]; stably transfected HEK293T with cell-secreted or transmembrane CPG2, 48 hr) | cell viability (Jurkat T cells) | activation by recombinant CPG2 in vitro (Human Jurkat T cells) | cell viability (SET2 cells) |
| --- | --- | --- | --- | --- | --- |
| NS(=O)(=O)OC[C@H]1O[C@@H](n2cnc3c(NC(=O)N[C@@H](CCC(=O)O)C(=O)O)ncnc32)[C@H](O)[C@@H]1O [P-AMS, ((9-((2R,3R,4S,5R)-3,4-dihydroxy-5-((sulfamoyloxy)methyl)tetrahydrofuran-2-yl)-9H-purin-6-yl)carbamoyl)-L-glutamic acid] | not activated | significant cell death | significant decrease in cell viability | activated | – |
| Nc1ncnc2c1ncn2[C@@H]1O[C@H](COS(=O)(=O)NCC2=C(C(=O)O)N3C(=O)[C@@H](NC(=O)Cc4cccs4)[C@H]3SC2)[C@@H](O)[C@H]1O [ceph-AMS] | – | – | – | – | significant decrease in cell viability |
